≈ marks a conversion by molar mass, not a printed value. Where two headings read alike, the source gives them in different places.
Experiments:
Type in all cases: cell-based
Serratia marcescens = experiment: MIC by NCCLS broth microdilution, 1100 Japanese clinical isolates 1997-1998
Enterococcus faecalis [1] = experiment: MIC by agar dilution (NCCLS), 411 isolates Buenos Aires 1998-99; details: Enterococcus faecalis (n = 48)
Pseudomonas aeruginosa = experiment: MIC by agar dilution (NCCLS), 322 nosocomial Gram negative isolates, Athens 1998; details: n = 57 isolates
Proteus vulgaris = experiment: MIC by NCCLS broth microdilution, 1100 Japanese clinical isolates 1997-1998
[2] = test system: Streptococcus pneumoniae and Haemophilus influenzae; experiment: MIC by broth microdilution (NCCLS), all isolates pooled
Salmonella spp. = experiment: MIC by agar dilution (NCCLS M7-A4), 288 enteropathogenic isolates, eight quinolones; details: for MIC: ciprofloxacin MIC ≥[…], read-out: MIC
Streptococcus pyogenes = experiment: MIC by agar dilution (NCCLS), 411 isolates Buenos Aires 1998-99; details: Streptococcus pyogenes (n = 69)
Escherichia coli = experiment: MIC by agar dilution (NCCLS), 322 nosocomial Gram negative isolates, Athens 1998; details: n = 57 isolates
Providencia rettgeri = experiment: MIC by NCCLS broth microdilution, 1100 Japanese clinical isolates 1997-1998
Enterococcus faecalis [3] = experiment: as above; details: for MIC90 / MIC50: Enterococcus faecalis
Proteus mirabilis = experiment: MIC by agar dilution (NCCLS), 322 nosocomial Gram negative isolates, Athens 1998; details: Proteus mirabilis; n = 57 isolates
Streptococcus pneumoniae = experiment: MIC by agar dilution (NCCLS), 411 isolates Buenos Aires 1998-99; details: for MIC / MIC90: Streptococcus pneumoniae; for MIC90: read-out: MIC90
Campylobacter jejuni = experiment: MIC by agar dilution (NCCLS M7-A4), 5% sheep blood, microaerophilic 48 h; details: Campylobacter jejuni (n=91)
[4] = MIC by agar dilution, Brucella HK agar, 491 anaerobic clinical isolates
Morganella morganii = experiment: MIC by NCCLS broth microdilution, 1100 Japanese clinical isolates 1997-1998; details: Morganella morganii (n=40)
Klebsiella pneumoniae = experiment: MIC by agar dilution (NCCLS), 322 nosocomial Gram negative isolates, Athens 1998; details: n = 56 isolates
Shigella spp. = experiment: MIC by NCCLS broth microdilution, 1100 Japanese clinical isolates 1997-1998; details: Shigella spp. (n=34)
Acinetobacter spp. = experiment: MIC by agar dilution (NCCLS), 322 nosocomial Gram negative isolates, Athens 1998; details: n = 38 strains
[5] = test system: Gram positive anaerobic and facultative anaerobic pathogens; experiment: microbe, parasite or virus in culture
Haemophilus influenzae = experiment: MIC by NCCLS reference broth microdilution, 450 respiratory tract pathogens; details: Haemophilus influenzae; for MIC90: read-out: MIC90
[6] = Enterococcus faecalis ciprofloxacin resistant (n=15)
[7] = Enterococcus faecalis ciprofloxacin susceptible (n=24)
[8] = Streptococcus pneumoniae (n = 90)
[9] = Haemophilus influenzae (n = 100)

CO/N=C1\CN(c2nc3c(cc2F)c(=O)c(C(=O)O)cn3C2CC2)CC1CN (racemic) [Gemifloxacin, (R,S)-7-(3-aminomethyl-4-methoxyiminopyrrolidin-1-yl)-1-cyclopropyl-6-fluoro-4-oxo-1,4-dihydro-1,8-naphthyridine-3-carboxylic acid]
MIC50 (Serratia marcescens; Serratia marcescens): 0.125 µg/mL (≈ 0.321 µM)
MIC90 (Serratia marcescens; Serratia marcescens (n=30)): 0.5 µg/mL (≈ 1.28 µM)
MIC Range (Serratia marcescens; Serratia marcescens (n=30)): 0.063 to 128 µg/mL
MIC90 (Enterococcus faecalis [1]): 2 µg/mL (≈ 5.14 µM)
MIC Range (Enterococcus faecalis [1]): 0.008 to 8 µg/mL
MIC50 (Pseudomonas aeruginosa): 1 µg/mL (≈ 2.57 µM)
MIC90 (Pseudomonas aeruginosa): > 64 µg/mL
MIC50 (Proteus vulgaris; Proteus vulgaris): 0.125 µg/mL (≈ 0.321 µM)
MIC Range (Proteus vulgaris; Proteus vulgaris (n=25)): 0.063 to 1 µg/mL
MIC90 (Proteus vulgaris; Proteus vulgaris (n=25), read-out: MIC90): 0.25 µg/mL (≈ 0.642 µM)
concentration at which all microorganisms were inhibited ([2]; 380 isolates (235 S. pneumoniae, 145 H. influenzae)): 0.06 µg/mL
concentration at which all isolates were inhibited ([2]; All 602 isolates): 0.12 µg/mL
MIC90 ([2]; all (380) isolates tested (235 S. pneumoniae, 145 H. influenzae)): 0.03 µg/mL (≈ 0.077 µM)
MIC90 ([2]; all isolates tested (602)): 0.06 µg/mL (≈ 0.154 µM)
MIC (Salmonella spp.; S. hadar (n = 2)): 0.25 µg/mL (≈ 0.642 µM)
MIC (Salmonella spp.; S. newport (n = 1)): 0.25 µg/mL (≈ 0.642 µM)
MIC (Salmonella spp.; S. virchow (n = 2)): 0.12 µg/mL (≈ 0.308 µM)
% Susceptible (Salmonella spp.; Salmonella spp. (n = 106)): 100%
MIC50 (Salmonella spp.; Salmonella spp. (n = 106)): 0.03 µg/mL (≈ 0.077 µM)
MIC90 (Salmonella spp.; Salmonella spp. (n = 106)): 0.12 µg/mL (≈ 0.308 µM)
MIC Range (Salmonella spp.; Salmonella spp. (n = 106)): ≤0.015 to 0.25 µg/mL
MIC (Salmonella spp.; Salmonella, S. tshiongwe (n = 1)): 0.25 µg/mL (≈ 0.642 µM)
MICs lower than those of the other fluoroquinolones studied (Salmonella spp.; six Salmonella spp. with ciprofloxacin MICs ≥[…]): 1-4 dilutions
MIC Range (Streptococcus pyogenes): ≤0.004 to 0.125 µg/mL
MIC90 (Streptococcus pyogenes; read-out: MIC90): 0.03 µg/mL (≈ 0.077 µM)
MIC50 (Escherichia coli; Escherichia coli): ≤ 0.03 µg/mL
MIC90 (Escherichia coli; Escherichia coli): 0.25 µg/mL (≈ 0.642 µM)
MIC Range (Escherichia coli): ≤0.03 to 64 µg/mL
MIC50 (Providencia rettgeri; Providencia rettgeri): 0.125 µg/mL (≈ 0.321 µM)
MIC90 (Providencia rettgeri; Providencia rettgeri (n=12)): 8 µg/mL (≈ 20.5 µM)
MIC Range (Providencia rettgeri; Providencia rettgeri (n=12)): 0.063 to 16 µg/mL
MIC90 (Enterococcus faecalis [3]): 0.125 µg/mL (≈ 0.321 µM)
MIC Range (Enterococcus faecalis [3]; [6]): 0.063 to 32 µg/mL
MIC Range (Enterococcus faecalis [3]; [7]): 0.063 to 0.125 µg/mL
MIC50 (Enterococcus faecalis [3]; [6]): 1 µg/mL (≈ 2.57 µM)
MIC90 (Enterococcus faecalis [3]; Enterococcus faecalis ciprofloxacin resistant (n=15), read-out: MIC90): 8 µg/mL (≈ 20.5 µM)
MIC50 (Enterococcus faecalis [3]; [7]): 0.063 µg/mL (≈ 0.162 µM)
MIC50 (Proteus mirabilis): 0.25 µg/mL (≈ 0.642 µM)
MIC90 (Proteus mirabilis): 16 µg/mL (≈ 41.1 µM)
MIC (Streptococcus pneumoniae): 0.125 µg/mL (≈ 0.321 µM)
MIC Range (Streptococcus pneumoniae; [8]): ≤0.004 to 0.125 µg/mL
MIC (Streptococcus pneumoniae; Ciprofloxacin-resistant S. pneumoniae, Strain 1, read-out: MIC): 0.03 µg/mL (≈ 0.077 µM)
MIC (Streptococcus pneumoniae; Ciprofloxacin-resistant S. pneumoniae, Strain 2, read-out: MIC): 0.06 µg/mL (≈ 0.154 µM)
MIC (Streptococcus pneumoniae; Ciprofloxacin-resistant S. pneumoniae, Strain 4, read-out: MIC): 0.06 µg/mL (≈ 0.154 µM)
MIC90 (Streptococcus pneumoniae; S. pneumoniae, Penicillin intermediate (n = 17)): 0.03 µg/mL (≈ 0.077 µM)
MIC90 (Streptococcus pneumoniae; S. pneumoniae, Penicillin resistant (n = 4)): 0.03 µg/mL (≈ 0.077 µM)
MIC90 (Streptococcus pneumoniae; S. pneumoniae, Penicillin susceptible (n = 69)): 0.03 µg/mL (≈ 0.077 µM)
MIC90 (Streptococcus pneumoniae; [8]): 0.03 µg/mL (≈ 0.077 µM)
% Susceptible (Campylobacter jejuni): 31.86%
MIC50 (Campylobacter jejuni): 32 µg/mL (≈ 82.2 µM)
MIC90 (Campylobacter jejuni): 128 µg/mL (≈ 329 µM)
MIC Range (Campylobacter jejuni): 0.03 to 128 µg/mL
MIC90 ([4]; clinical isolates of Bacteroides spp., Prevotella bivia and other Prevotella spp.): 8 to 32 µg/mL (≈ 20.5 to 82.2 µM)
MIC ([4]; read-out: MIC90s): 0.125 to 0.5 µg/mL (≈ 0.321 to 1.28 µM)
MIC Range (Morganella morganii): 0.016 to 16 µg/mL
MIC50 (Morganella morganii; read-out: MIC50): 0.063 µg/mL (≈ 0.162 µM)
MIC90 (Morganella morganii; read-out: MIC90): 0.25 µg/mL (≈ 0.642 µM)
MIC50 (Klebsiella pneumoniae; Klebsiella pneumoniae): 0.06 µg/mL (≈ 0.154 µM)
MIC90 (Klebsiella pneumoniae; Klebsiella pneumoniae): 0.5 µg/mL (≈ 1.28 µM)
MIC Range (Klebsiella pneumoniae): ≤0.03 to 4 µg/mL
MIC50 (Shigella spp.): ≤ 0.008 µg/mL
MIC90 (Shigella spp.): 0.032 µg/mL (≈ 0.0822 µM)
MIC Range (Shigella spp.): ≤0.008 to 0.032 µg/mL
MIC50 (Acinetobacter spp.; Acinetobacter): 2 µg/mL (≈ 5.14 µM)
MIC90 (Acinetobacter spp.; Acinetobacter): 32 µg/mL (≈ 82.2 µM)
MIC Range (Acinetobacter spp.): 0.06 to 32 µg/mL
MIC ([5]; Bifidobacterium adolescentis, ATCC15703): 0.25 µg/mL (≈ 0.642 µM)
MIC ([5]; Bifidobacterium bifidum, JCM1255): 2 µg/mL (≈ 5.14 µM)
MIC ([5]; Bifidobacterium breve, ATCC15700): 1 µg/mL (≈ 2.57 µM)
MIC ([5]; Bifidobacterium longum, ATCC15707): 1 µg/mL (≈ 2.57 µM)
MIC ([5]; Bifidobacterium pseudolongum, ATCC25526): 1 µg/mL (≈ 2.57 µM)
MIC ([5]; Clostridioides difficile): 2 µg/mL (≈ 5.14 µM)
MIC ([5]; Clostridium perfringens, ATCC13124): 0.06 µg/mL (≈ 0.154 µM)
MIC ([5]; Clostridium septicum, ATCC12464): 0.06 µg/mL (≈ 0.154 µM)
MIC ([5]; Cutibacterium acnes, ATCC11828): 0.25 µg/mL (≈ 0.642 µM)
MIC ([5]; Eggerthella lenta, ATCC25559): 0.25 µg/mL (≈ 0.642 µM)
MIC ([5]; Finegoldia magna, ATCC29328): ≤ 0.03 µg/mL
MIC ([5]; Gemella morbillorum, ATCC27824): 0.25 µg/mL (≈ 0.642 µM)
MIC ([5]; Lacticaseibacillus casei, JCM1134): ≤ 0.03 µg/mL
MIC ([5]; Lactiplantibacillus plantarum, JCM1149): 2 µg/mL (≈ 5.14 µM)
MIC ([5]; Lactobacillus acidophilus, JCM1132): 0.5 µg/mL (≈ 1.28 µM)
MIC ([5]; Levilactobacillus brevis, JCM1059): 0.5 µg/mL (≈ 1.28 µM)
MIC ([5]; Ligilactobacillus salivarius, JCM1231): 0.06 µg/mL (≈ 0.154 µM)
MIC ([5]; Limosilactobacillus reuteri, JCM1112): 0.25 µg/mL (≈ 0.642 µM)
MIC ([5]; Limosilactobacillus reuteri, JCM1173): 0.25 µg/mL (≈ 0.642 µM)
MIC ([5]; Paraclostridium sordellii, ATCC9714): 0.5 µg/mL (≈ 1.28 µM)
MIC ([5]; Parvimonas micra): 0.125 µg/mL (≈ 0.321 µM)
MIC ([5]; Peptoniphilus asaccharolyticus): 0.125 µg/mL (≈ 0.321 µM)
MIC ([5]; Peptoniphilus indolicus): ≤ 0.03 µg/mL
MIC ([5]; Peptostreptococcus anaerobius, ATCC27337): 0.06 µg/mL (≈ 0.154 µM)
MIC ([5]; Schaalia odontolytica): 4 µg/mL (≈ 10.3 µM)
MIC ([5]; Staphylococcus saccharolyticus, ATCC14953): ≤ 0.03 µg/mL
MIC ([5]; Streptococcus constellatus, ATCC27823): ≤ 0.03 µg/mL
MIC ([5]; Streptococcus intermedius, ATCC27335): 0.06 µg/mL (≈ 0.154 µM)
MIC ([5]; Thomasclavelia ramosa, ATCC25582): 0.5 µg/mL (≈ 1.28 µM)
MIC (Haemophilus influenzae; [9]): 0.0075 to 0.06 µg/mL (≈ 0.0193 to 0.154 µM)
MIC50 (Haemophilus influenzae; [9]): ≤ 0.0075 µg/mL
MIC90 (Haemophilus influenzae; [9]): ≤ 0.00075 µg/mL
MIC (Haemophilus influenzae; β-lactamase negative (n = 80)): 0.0075 to 0.015 µg/mL (≈ 0.0193 to 0.0385 µM)
MIC50 (Haemophilus influenzae; β-lactamase negative (n = 80)): ≤ 0.0075 µg/mL
MIC90 (Haemophilus influenzae; β-lactamase negative (n = 80)): ≤ 0.0075 µg/mL
MIC (Haemophilus influenzae; β-lactamase positive (n = 20)): 0.0075 to 0.06 µg/mL (≈ 0.0193 to 0.154 µM)
MIC50 (Haemophilus influenzae; β-lactamase positive (n = 20)): ≤ 0.0075 µg/mL
MIC90 (Haemophilus influenzae; β-lactamase positive (n = 20)): 0.015 µg/mL (≈ 0.0385 µM)
